Experimental data published in patent publication US20020127208A1, “Method of transplantation using chemotherapy-treated allogeneic cells that enhance immune responses without graft versus host disease” (priority 2000, published 2002).

What was measured:
responder splenocytes = assay: Proliferative response to allo-antigen (MLR) and mitogen, thymidine incorporation; assay type: cell-based, mouse; settings: prior exposure to 20 μg/ml for 24 hours, vs control
Text: A. Fludarabine attenuates the proliferative response of spleen cells to allogeneic stimulation (MLR) or mitogenic stimulation (con A). […] Strain combinations of DBA versus BL6 and BL6 versus DBA were used in the MLR experiments. CPM is expressed as percent of non-treated control.
4×10^6 cells/ml responder cells (either B10.BR, DBA/2, or Balb/c) were co-cultured with 2×10^6 irradiated (25 Gy) stimulator cells/ml (C57.BL6) in complete media with 10 U/ml IL-2 (Chiron Corporation, Emeryville, Calif.) and 10 ng/ml IL-7 (PeproTech Inc., Rocky Hill, N.J.) in 96 well plates. Proliferation was monitored by measuring DNA synthesis/thymidine incorporation. Cultures were pulsed with 1 uCi/well of tritiated thymidine (NEN Life Sciences, Boston, Mass.) on day 6, harvested onto filtermats using a Tomtec Harvester (Hamden, Conn.) on day 7, and read on MicroBeta TriLux counter (PerkinElmer, Inc., Gaithersburg, Md.).

[1] = test system: lethally irradiated B10.BR (H2k) recipient mice; assay: MHC mis-matched C57.BL6 to B10.BR transplant model: survival, GvHD (weight), donor engraftment; assay type: in vivo, mouse; settings: splenocytes treated with 20 μg/ml vs control or other doses (0, 3, 10, 40 μg/ml)
Text: Lethally irradiated (11 Gy) B10.BR (H2^k) recipient mice were transplanted with 1×10^6 BL6 (H2^b) TCD-BM cells (n=40, thin line). […] Survival and weight change data are derived from 2-6 individual experiments using 5 or 10 animals per group. Kaplan-Meier survival determinations are shown in A (ticks indicate time points at which individual experiments were terminated). Trend lines representing the mean weight change (percent body weight) for each group are shown in B. Trend lines were calculated using a moving average with a periodicity of 3.
1×10^6 TCD-BM cells and splenocytes from BL6 strains having different Thy1.1 or Thy1.2 isotypes were administered to lethally irradiated B10.BR mice. […] Donor splenocyte derived CD4+ (gray bars) and CD8+ (black bars) were quantified in the peripheral blood of recipient mice 2-4 months post-transplant.
B10.BR recipients were lethally irradiated and transplanted with 1×10^6 TCD-BM from CD45.1+ C57.BL6 donors. […] The fraction of blood T-cells derived from recipient, donor BM, and donor spleen were determined at day +27 post-transplant, using markers for T-cells (CD3), recipient-type cells (H2^k), donor-type cells (H2^b), and CD45.1/CD45.2 isoforms.
Recipient mice were irradiated 1 day prior to transplant using a ^137CS source at a rate of 1.24 Gy/min. […] The mice were monitored daily for survival; moribund animals were euthanized. […]

MCMV [2] = assay: Adoptive immunotherapy against MCMV lethality, 10x10^6 lymphocytes, B/6 to F1 BMT; assay type: in vivo, mouse; settings: day +120 post-BMT, MCMV infected; for % survival, immune splenocytes / Survivors/Total, immune splenocytes: 10×10^6 MCMV-immune lymphocytes; for % survival, naive splenocytes / Survivors/Total, naive splenocytes: 10×10^6 naive lymphocytes
Procedure: Spleens were removed from either untreated PepBoy mice (naive donors), or those that had been inoculated with 10^5-10^6 PFU MCMV 2-4 months earlier (immune donors).
To generate irradiated splenocytes for adoptive immunotherapy, cells were harvested after 24 hour culture and exposed to a single fraction of radiation from a ^137Cs source for a total of 7.5 Gy. S-59 psoralen (Cerus Corporation, Concord, Calif.) was added to some splenocytes cultures at the end of the 24 hour culture period at a final concentration of 2 nM. The cells in a T75 tissue culture flask were then placed on a UVA (320-400 nm) illumination device with a nominal fluorescence of 7 mW (Cole Parmer, Vernon Hill, Ill.) and illuminated for 5 mins to achieve 3.0 J/cm^2 equivalent UVA dose. Control (untreated) splenocytes were harvested after 24 hour culture without other interventions. For all four groups, lymphocytes were washed at the end of the culture/treatment period and the appropriate dosage of viable cells was used for adoptive immunotherapy.
One day prior to transplant, recipient F1 mice were conditioned using a ^137Cs source at a dose rate of 1.24 Gy/min. Two doses of 5.5 Gy were administered, 3 hours apart, for a total lethal dose of 11 Gy. Irradiated mice were given free access to drinking water containing oral antibiotics (1.1 mg/ml neomycin sulfate and 1000 U/ml polymyxin sulfate; Sigma, St. Louis, Mo.) starting 3 days prior to irradiation and continuing through the end of the experimental period. 5×10^6 T-cell depleted (TCD) BM cells in a total volume of 0.2 ml HBSS/FBS were injected into the tail vein of F1 mice on the day following irradiation. In adoptive immunotherapy experiments, the appropriate number of donor splenocytes were mixed with TCD BM cells and injected simultaneously in 0.2 ml total volume. Two hours after BMT, mice were injected intraperitoneally with appropriate MCMV inocula diluted in DMEM/CS. Control (uninfected) mice received DMEM/CS alone. Mice were evaluated daily for morbidity and mortality. The development of clinical GvHD was prospectively monitored by weighing mice twice weekly, as well as observing for alopecia and/or ruffled fur, diarrhea, and decreased activity with a “hunched over” appearance. Moribund mice were euthanized based on Emory IACUC end-points and protocols.
Lymphocytes were prepared from the spleens of naïve or MCMV-immune B/6 donors and 10×10^6 or 30×10^6 were infused IV at the time of B/6→F1 allogeneic BMT. […] Some groups of mice were subsequently infected with 2×10^4 PFU MCMV at two hours after BMT, a viral inoculum expected to produce 90-100% lethality (FIG. 8B).
Table 2: Effect of adoptive immunotherapy on the survival of B/6→F1 BMT mice following MCMV infection. At the time of BMT, mice were infused with 10×10^6 splenic lymphocytes from B/6 mice that were either previously-infected with MCMV (“Immune splenocytes”) or uninfected (“Naive splenocytes”). […] Some mice received lymphocytes that were untreated. The table lists the number of surviving mice (at day +120 post-BMT) and the total number of mice in each group, as well as the percentage survival.

MCMV [3] = assay: Adoptive immunotherapy against MCMV lethality, 30x10^6 MCMV-immune lymphocytes, B/6 to F1 BMT; assay type: in vivo, mouse; settings: 30×10^6 immune lymphocytes; 2×10^4 PFU MCMV; P<0.001
Text: Spleens were removed from either untreated PepBoy mice (naive donors), or those that had been inoculated with 10^5-10^6 PFU MCMV 2-4 months earlier (immune donors). Polyclonal splenocytes were harvested by perfusing spleens with sterile HBSS/FBS. […]

splenocytes = assay: Splenocyte viability in 24 hour culture
Procedure: Splenocytes were harvested by perfusing spleens with sterile HBSS/FBS, and washed before culture. Splenocytes (10×10^6 cells/ml) were incubated in complete media (RPMI supplemented with 10% heat-inactivated FBS, 50 μM 2-mercaptoethanol, 100 Units/ml penicillin, 100 ug/ml streptomycin, 292 μg/ml L-glutamine, 1 mM sodium pyruvate, and non-essential amino acids added according to the manufacturer's specifications (Biowhittaker, Walkersville, Md.)). […] Overall viability was assessed by counting ethidium bromide/acridine orange stained cells under fluorescence microscopy. Survival of T-cell populations was determined by flow cytometric analyses using fluorochrome conjugated antibodies against mouse CD3, CD4 and CD8. Propidium iodide stain was used to exclude dead cells from the analysis.
The data represent the mean ±SEM for 4 individual experiments.

alloreactive T-cells = assay: Limiting dilution assay of alloreactive cell frequency; settings: 20 μg/ml, B10.BR responders stimulated with C57.BL6
Procedure: Limiting dilution assay of B10.BR responder cells stimulated with C57.BL6.
The frequency of alloreactive cells was measured using a limiting dilution assay . Briefly, 20,000 responder cells were three-fold serially diluted in 96-well plates with 12 replicate wells per dilution. 10,000 stimulator cells were added to each well in a combined total volume of 150 μl complete media. After 7 days in co-culture, the proliferation of responder cells was measured using tritiated thymidine incorporation. The number of responder cells was plotted versus the natural logarithm of the percentage of negative wells (i.e., wells with cpm readings lesser than media control). The reciprocal of the slope of the regression line yielded the frequency of alloreactive T-cells.

B/6 to F1 BMT mice = assay: Lethality (GvHD) of 30x10^6 transferred lymphocytes without MCMV infection; assay type: in vivo, mouse; settings: 30×10^6 lymphocytes; n=20
Text: FIGS. 9A-C. Adoptive immunotherapy to prevent MCMV lethality. Conditioned F1 recipients were infused with 5×10^6 TCD BM cells from B/6 donors. Some groups also received simultaneous infusions of 30×10^6 unselected splenocytes from B/6 donors previously infected with MCMV (immune). […] Following transplantation, mice were either infected with 2×10^4 PFU MCMV (A), or vehicle (B). Data from two separate experiments (n=20 mice per group) were combined for display and analysis. […] Survival was not improved when mice were infused with cultured (untreated) splenocytes (P>0.05). […]
To generate irradiated splenocytes for adoptive immunotherapy, cells were harvested after 24 hour culture and exposed to a single fraction of radiation from a ^137Cs source for a total of 7.5 Gy. […] The cells in a T75 tissue culture flask were then placed on a UVA (320-400 nm) illumination device with a nominal fluorescence of 7 mW (Cole Parmer, Vernon Hill, Ill.) and illuminated for 5 mins to achieve 3.0 J/cm^2 equivalent UVA dose. […]
One day prior to transplant, recipient F1 mice were conditioned using a ^137Cs source at a dose rate of 1.24 Gy/min. […] Mice were evaluated daily for morbidity and mortality. The development of clinical GvHD was prospectively monitored by weighing mice twice weekly, as well as observing for alopecia and/or ruffled fur, diarrhea, and decreased activity with a “hunched over” appearance. […]

[4] = test system: liver of B/6 to F1 BMT mice; assay: Histologic assessment of hepatic inflammation (GvHD) and MCMV inclusions; assay type: in vivo, mouse; settings: day +14
Text: FIGS. 11A-H. S-59/UVA-treated lymphocytes decrease hepatic MCMV infection without producing GvHD. […] Some mice were infected with 5×10^4 PFU MCMV (B, D, F, G), while others were uninfected (A, C, E). At day +14, livers were harvested from surviving mice and prepared for histologic examination. […] Numerous typical cytomegalic inclusions can be appreciated in a higher power photomicrograph (G). […] In contrast, mice infused with S-59/UVA lymphocytes had normal-appearing hepatic architecture with minimal detectable inflammation whether they were infected (F) or not (E).
Mice were euthanized, and segments of liver were immersion-fixed in 10% formalin, embedded in paraffin, cut in 8 μm sections, and stained with hematoxylin and eosin. […] Typical eosinophilic intranuclear cytomegalic inclusion bodies were counted in 10 contiguous high-power fields (hpf) on each section as a marker of viral replication. […] The results were decoded, tabulated, and analyzed by another co-author (J.R.).
A sample of liver was also prepared for microscopic quantitation of MCMV-infected cells and hepatic inflammation. A trained anatomic pathologist (D.J.), blinded to sample identity, scored the sections for MCMV inclusions and hepatic portal inflammation. Representative photomicrographs are shown in FIGS. 11(A-G) and quantitative data analysis in FIG. 11H. […]

[5] = 20 μg/ml fludarabine, 24 hour culture, % compared to starting cell no., mean ± SEM, 4 experiments

| Compound | Decrease of proliferative response to concanavalin A (responder splenocytes; 10 μg/ml con A) | Reduction of thymidine incorporation after stimulation with allogeneic antigen (MLR) (responder splenocytes; 7-day MLR) | 40 day survival rate, pilot allogeneic transplant experiments [1] | % survival, immune splenocytes (MCMV [2]) | Survivors/Total, immune splenocytes (MCMV [2]) | % survival, naive splenocytes (MCMV [2]) | Survivors/Total, naive splenocytes (MCMV [2]) | Survival compared to mice that did not receive adoptive immunotherapy (MCMV [3]) | Splenocyte viability, CD4+ T-cells (splenocytes; [5]) | Splenocyte viability, CD8+ T-cells (splenocytes; [5]) | Splenocyte viability, all leukocytes (splenocytes; [5]) | Splenocyte viability, non T-cells (splenocytes; [5]) | Splenocyte viability, all leukocytes (splenocytes; 20 μg/ml fludarabine, 24 hour culture, % compared to starting cell no., mean ± SEM, 4 experiments, listed as fludarabine) | T-cell viability after fludarabine culture (splenocytes; 20 μg/ml, 24 hr) | Viability of predominantly CD8+ cultured CTL's (splenocytes; activated, allo-stimulated CTL's, in contrast to naive spleen cells) | Decrease in the frequency of allo-reactive T-cells (alloreactive T-cells) | Frequency of alloreactive cells in fludarabine treated culture (alloreactive T-cells; untreated culture 1/205) | Mice that died without MCMV infection (B/6 to F1 BMT mice) | Portal inflammation score (scale 1-5) ([4]; MCMV infected) | Portal inflammation score (scale 1-5) ([4]; not MCMV infected) |
| --- | --- | --- | --- | --- | --- | --- | --- | --- | --- | --- | --- | --- | --- | --- | --- | --- | --- | --- | --- | --- |
| 9-beta-D-arabinosyl-2-fluoroadenine [Fludarabine] | 37% | 62% | most favorable | 71% | 24/34 | 23% | 8/35 | significantly improved survival | 69.0 ± 9.9% | 62.1 ± 12.9% | 41.6 ± 7.8% | 33.6 ± 6.4% | approximately 42% | 60-70% | not affected | 66% | 1/621 | – | – | – |
| Cc1oc2c(C)c3oc(=O)cc(C)c3cc2c1COCCN [S-59] | – | – | – | 90% | 9/10 | 30% | 3/10 | significantly improved survival | – | – | – | – | – | – | – | – | – | none | 3.0 | 2.3 |
